The text below walks through data of patent US11207289B2, “Use of benzofuran lignans to induce IL-25 expression and suppress mammary tumor metastasis” (ACADEMIA SINICA, priority 2016, dated 2021).

SMILES strings stand for the structures.

What is called viability is the share of living cells, or the viability signal relative to a control. The low end stands for more harm to the cells, the high end for less harm to the cells. As a reminder, the inhibition is the percentage by which the read-out fell short of the control.

The subject of one data set is mouse IL-25. Put plainly: 3-D culture, western blot of IL-25 in 3T3 fibroblasts and 3T3-CM. Format: cell-based. On the procedure:
(§1) To mimic the tumor microenvironment, a 3-dimensional (3-D) co-culture system was employed for the maintenance of mammary tumor cells and tumor-associated fibroblasts in adjacent collagen gels as reported in Rajan et al., Nature protocols, 1, 2753-2758 (2006). More specifically, rat tail collagen solution dissolved in acetic acid was neutralized by 1 N NaOH and then mixed with 10×PBS at 4° C. in a ratio of 9:1. To construct solid tumor-like cell mass, mouse (4T1 or TS/A cells) or human (MCF-7 or MDA-MB-231 cells) mammary tumor cells in each correspondent culture medium (1×10^6 cells/ml) were mixed with 4 mg/ml collagen solution in a ratio of 1:1. Four drops of collagen-tumor cell mixture ([…]) were immediately and separately loaded on culture substratum in each well of a 6-well plate. The plates were then turned-over and kept in CO2 incubator at 37° C. for collagen gelation. […]
(§2) To pull down and deplete IL-25 protein molecules in 3T3 or MDA-MB-231 cell conditioned media, the Dynabeads antibody coupling kit (Life Technology; 14311D) was used according to the manufacturer's recommendations, yielding 10 mg/ml anti-IL25 antibody (ProteinTech, Chicago, Ill.)-coupled beads. […] The antibody-pulled down proteins from 3T3-CM, NHDF-CM or WI38-CM, were detected for the content of secreted IL-25 protein in each conditioned medium using western blot analysis. […]
A general note: Immunoblotting shows a protein as a band on a membrane.

A further data set concerns MCF-7 cells. The settings on record: cited from earlier work.
A short description of data set [1]: MTT assay, cytotoxic effect on WI38. The following applies: human, WI38 cells (human fibroblast cell line). The class given is cell-based. On the procedure: (§3) M10, WI38, SKBR3, and MDA-MB-231 cells (1×10^5 cells/ml) dispensed in 96-well plates were incubated with vehicle or test compounds (Q2-3) for 24 h or 72 h in corresponding basal medium in a 5% CO2 incubator. To evaluate the effect of secreted IL-25 from Q2-3-treated fibroblasts on growth activity of mammary tumor cells, 4T1 and MDA-MB-231 cells (1×10^4 cells/ml) dispensed in 96-well plates were incubated with control medium or different fibroblast conditioned media (200 μl/ml) which was changed daily for 5 days. All treatments were performed in triplicate cell cultures. The growth activity of cells was assayed using a 3-(4, 5-dimethythiazol-2-yl)-2, 5-diphenyl tetrazolium bromide (MTT; Sigma-Aldrich) colorimetric method. The absorbance at 570 nm (A570) was measured using a multiwall scanning spectrophotometer.
FIG. 1 is a schematic depiction of cytotoxic effects of dihydrobenzofuran lignan (Q2-3) on breast tumor cells. (a): Scheme for synthesis of Q2-3 (methyl (E)-3-[2-(3,4-dihydroxyphenyl)-7-hydroxy-3-methoxycarbonyl-2,3-dihydro-1-benzofuran-5yl]prop-2-enoate) from two caffeic acid methyl ester molecules. […] The beginning cytotoxic dosage of Q2-3 was detected at 0.3 μM, with >50% kill rate on SKBR3 and MDA-MB-231 cells. […]

A further data set relates to human IL-25. Put plainly: 3-D culture, western blot of IL-25 in WI38 fibroblasts and WI38-CM. Format: cell-based. As to the method:
as §1, §2

Another data set concerns MDA-MB-231-Luc2 cells. Put plainly: MDA-MD-231-Luc2 tumor resection model in nude mice: metastasis and survival. Format: in vivo. The following applies: Q2-3 100 μg/kg, DT 5 mg/kg.
A further data set has as its system SKBR3 cells. The experiment in a line: MTT assay, cytotoxic effect on SKBR3. The class given is cell-based, human. On the procedure:
as §3
(§4) FIG. 1 is a schematic depiction of cytotoxic effects of dihydrobenzofuran lignan (Q2-3) on breast tumor cells. (a): Scheme for synthesis of Q2-3 (methyl (E)-3-[2-(3,4-dihydroxyphenyl)-7-hydroxy-3-methoxycarbonyl-2,3-dihydro-1-benzofuran-5yl]prop-2-enoate) from two caffeic acid methyl ester molecules. (b) and (c): MTT assays for cytotoxic effect of Q2-3 on SKBR3 (ER^−Her^+ human breast cancer cell line), MDA-MB-231 (ER^−Her^− human breast cancer cell line), M10 (human normal epithelial cell line) and WI38 (human lung fibroblast cell line). 2×10^4 cells were seeded and compared for their growth activity after treatment with Q2-3 for 24 or 72 h. The beginning cytotoxic dosage of Q2-3 was detected at 0.3 μM, with >50% kill rate on SKBR3 and MDA-MB-231 cells.
(§5) The effects of Q2-3 on cell viability were tested on four different cell lines, i.e., normal human mammary epithelial (M10), normal human […] (WI38), and two human mammary tumor cells (SKBR3 and MDA-MB-231), by treating cells with Q2-3 at various concentrations for 24 h (FIG. 1b) and 72 h (FIG. 1c).
(In general: Tetrazolium assays rely on reduction of a dye to a coloured formazan, in cell work by metabolically active cells.)

The next data set relates to Jurkat cells. The settings on record: cited from earlier work.
A further data set relates to MDA-MB-231 cells. The experiment in a line: MTT assay, cytotoxic effect on MDA-MB-231. The class given is cell-based, human. On the procedure: as §3, §4, §5
[2] abbreviates: 3-D culture, treatment 24 h or 72 h.

For the molecule `COC(=O)/C=C/c1cc(O)c2c(c1)C(C(=O)OC)C(c1ccc(O)c(O)c1)O2` (stereo not drawn) [Q2-3, methyl(E)-3-[2-(3,4-dihydroxyphenyl)-7-hydroxy-3-methoxycarbonyl-2,3-dihydro-1-benzofuran-5yl]-prop-2-enoate], the “expression of IL-25 in mouse (3T3) fibroblasts” value with mouse IL-25 (setting [2]) was “increased”. Further, the “level of secreted IL-25 in fibroblast-conditioned medium vs untreated” value in the data set with mouse IL-25 (3T3-CM) and in the data set with human IL-25 (WI38-CM) was “significantly higher” each time. Also, the anti-proliferation effect entry with MCF-7 cells and in the data set with Jurkat cells was “significant anti-proliferation effect” throughout. Moreover, the viability at 2 µM in data set [1] was not below 80%. The “expression of IL-25 in human (WI38) fibroblasts” value in the data set on human IL-25 (setting [2]) was “increased”. Besides, the survival rate entry in the data set on MDA-MB-231-Luc2 cells is listed as “more effective than treatment with DT”. Also, the “anti-metastatic activity (luminescent activity of MDA-MB-231-Luc2 cells)” value in the data set with MDA-MB-231-Luc2 cells (i.v. 3 weeks post tumor resection) is reported as “more effective than treatment with DT”. Also, the inhibition at 0.5 µM in the data set with SKBR3 cells (Homo sapiens, SK-BR-3, ≥0.5 μM, 24 h and 72 h, vs 0.1% DMSO control, read-out: growth inhibition) was not below 60%; in the data set with MDA-MB-231 cells (Homo sapiens, ≥0.5 μM, 24 h and 72 h, vs 0.1% DMSO control, read-out: growth inhibition) it was not below 60%. The kill rate in the data set on SKBR3 cells (at 0.3 μM) and in the data set with MDA-MB-231 cells (at 0.3 μM) was more than 50% in each case. The beginning cytotoxic dosage in the data set on SKBR3 cells (treatment 24 or 72 h) and in the data set with MDA-MB-231 cells (treatment 24 or 72 h) was 0.3 µM each time.
